This note sets out measurements from PMC8887546, “Design and Synthesis of Brain Penetrant Glycopeptide Analogues of PACAP With Neuroprotective Potential for Traumatic Brain Injury and Parkinsonism” (Frontiers in drug discovery, 2022).

The subject of assay [1] is C57BL/6 mice, diffuse TBI. In words: Sleep-wake parameters (piezoelectric sleep cage) after TBI. The format is in vivo, mouse. The settings on record: 10 mg/kg i.p. 30 min prior to TBI. Here is the method:
30 min prior to TBI or sham injury, mice were randomly assigned to a therapeutic group and received an intraperitoneal injection of 2LS80Mel (10 mg/kg) or sterile saline (0.25 ml). Groups were as follows: TBI-2LS80Mel n = 17; TBI-vehicle n = 17; sham n = 22 (vehicle n = 11, 2LS80Mel n = 11).
Mice (19–24 g) were subjected to midline fluid percussion injury (mFPI) consistent with methods previously described ([Lifshitz, 2009]; [Harrison et al., 2014]; [Rowe et al., 2014a]; [Rowe et al., 2014b]; [Rowe et al., 2014c]). Mice were anesthetized using 5% isoflurane in 100% oxygen for 5 min and the head of the mouse was placed in a stereotaxic frame with continuously delivered isoflurane at 2.5% via nosecone. […] The injury hub was closed using a Luer-Loc cap and mice were placed in a heated recovery cage and monitored until they were ambulatory before being returned to their respective sleep cages.
For injury induction 24 h post-surgery, mice were re-anesthetized with 5% isoflurane delivered for 3 min. […] Injured mice were monitored for presence of a forearm fencing response and righting reflex times were recorded as indicators of injury severity ([Hosseini and Lifshitz, 2009]). […] After spontaneously righting, mice were placed in a heated recovery cage and monitored until they were ambulatory (approximately 5–15 min) before being returned to their piezoelectric sleep cage (see below). […]

Assay [2] concerns Sprague Dawley rats, 6-OHDA lesion. Briefly: Microglia morphology in substantia nigra, IBA1 skeleton analysis (study 2). The format is in vivo, rat. The conditions noted are these: more severe (40%) lesion, treatment vs vehicle, n = 7. As for the experimental part:
Rats were treated with 2LS98Lac or saline (vehicle) as outlined in the Schemes in Figures 9A,B via intraperitoneal (i.p.) injection (15 mg/kg). All animals were made hemi-parkinsonian with unilateral, striatal 6-hydroxydopamine (Sigma Aldrich, St. Louis, MO) injections. After surgery, behavioral assessments were done at 2- and 4-weeks post-surgery. 24 h after the last test animals were either euthanized and whole brains were harvested for future biochemical analysis or perfused and brains collected for immunohistochemistry and stereological assessment of tyrosine hydroxylase-positive (TH+) cells remaining in the SNc. In study 1: n = 16 each group were included, and all underwent the behavioral analysis: n = 16, and for the stereology in the SNc, n = 8 each group was used. In study 2: n = 23 each group were included. […] In the 2LS98Lac group, one video at 4 weeks was lost, reducing n = 22 in this specific analysis, and for the stereology, 2 brains were damaged during processing and could not be included in the stereology of the SNc, therefore […]. For biochemical subanalyses, n = 8 each group. For the microglial morphology subanalysis n = 7 each group.
Three coronal brain sections that contained the substantia nigra (SN) were randomly chosen for each animal. For immunofluorescence of microglia free-floating brain sections were first blocked in 10% horse serum (Vector Laboratories, S-2000–20, Burlingame, CA) and buffer solution (0.01 M PBS, 0.05% Triton, and 0.04% NaN3) for 1 h followed by a 72 h incubation with primary antibodies as appropriate: rabbit anti-IBA1 at 1:1,000 (Wako, 019–19741, Madison, WI), mouse anti-TH at 1:2000 (R& D Systems, MAB7566, Minneapolis, MN). […] All incubation steps were performed at room temperature; washes between incubations were with 0.01 M PBS for 15 min. Vectashield (Vector Laboratories, H-1000) was used to coverslip mounted tissue.
Images were acquired on a confocal microscope (Zeiss NLO 880, San Diego, CA) in 3 fields of view within the SN of each intact and lesioned hemisphere using a ×40 objective (473.33 × 473.33 μm area). […] Threshold parameters were consistent for all images, and the percent area of IBA1 immunofluorescence was measured for each image. The number of cell somas was counted in the IBA1 channel, an approximation of the number of cells imaged in each frame, and all percent area data was divided by this cell count.
Ramified microglial morphology was quantified using an objective and computer-aided skeleton analysis method previously described in detail ([Young and Morrison, 2018]). […] Sampling averages were calculated for each animal within each region (intact SN and lesion SN) prior to statistical analyses. […]

As for `CC[C@H](C)[C@H](NC(=O)CNC(=O)[C@H](CC(=O)O)NC(=O)[C@H](CO)NC(=O)[C@@H](N)Cc1c[nH]cn1)C(=O)N[C@@H](Cc1ccccc1)C(=O)N[C@H](C(=O)N[C@@H](CC(=O)O)C(=O)N[C@@H](CO)C(=O)N[C@@H](Cc1ccc(O)cc1)C(=O)N[C@@H](CO)C(=O)N[C@@H](CCCNC(=N)N)C(=O)N[C@@H](Cc1ccc(O)cc1)C(=O)N[C@@H](CCCNC(=N)N)C(=O)N[C@@H](CCCCN)C(=O)N[C@@H](CCC(N)=O)C(=O)N[C@@H](CC(C)C)C(=O)N[C@@H](C)C(=O)N[C@H](C(=O)N[C@@H](CCCCN)C(=O)N[C@@H](CCCCN)C(=O)N[C@@H](Cc1ccc(O)cc1)C(=O)N[C@@H](CC(C)C)C(=O)N[C@@H](C)C(=O)N[C@@H](C)C(=O)N[C@H](C(=O)N[C@@H](CC(C)C)C(=O)N[C@@H](CO[C@@H]1O[C@H](CO[C@H]2O[C@H](CO)[C@H](O)[C@H](O)[C@H]2O)[C@@H](O)[C@H](O)[C@H]1O)C(N)=O)C(C)C)C(C)C)[C@@H](C)O` [Compound 2LS80Mel], in assay [1], the “Cumulative minutes slept in the first 6 h post-injury” value is “slept comparable minutes to uninjured sham animals” and the “Sleep in the first dark period” value was “prevented this injury-induced increase in sleep”.

For the compound `[2H]C([2H])([2H])C([2H])(C([2H])([2H])[2H])[C@]([2H])(NC(=O)[C@H](C)NC(=O)[C@H](C)NC(=O)[C@H](CC(C)C)NC(=O)[C@H](Cc1ccc(O)cc1)NC(=O)[C@H](CCCCN)NC(=O)[C@H](CCCCN)NC(=O)[C@@]([2H])(NC(=O)[C@H](C)NC(=O)[C@H](CC(C)C)NC(=O)[C@H](CCC(N)=O)NC(=O)[C@H](CCCCN)NC(=O)[C@H](CCCNC(=N)N)NC(=O)[C@H](Cc1ccc(O)cc1)NC(=O)[C@H](CCCNC(=N)N)NC(=O)[C@H](CO)NC(=O)[C@H](Cc1ccc(O)cc1)NC(=O)[C@H](CO)NC(=O)[C@H](CC(=O)O)NC(=O)[C@@H](NC(=O)[C@H](Cc1ccccc1)NC(=O)[C@@H](NC(=O)CNC(=O)[C@H](CC(=O)O)NC(=O)[C@H](CO)NC(=O)[C@@H](N)Cc1c[nH]cn1)[C@@H](C)CC)[C@@H](C)O)C([2H])(C([2H])([2H])[2H])C([2H])([2H])[2H])C(=O)N[C@@H](CC(C)C)C(=O)N[C@@H](CO[C@@H]1O[C@H](CO)[C@@H](O[C@@H]2O[C@H](CO)[C@H](O)[C@H](O)[C@H]2O)[C@H](O)[C@H]1O)C(N)=O` [Compound 2LS98Lac], in assay [2], the “% area IBA-1/cell on the lesioned side” value is reported as “significant increase”, the “Microglial branches/cell on the lesioned side” value is “significant increase”, the “Microglial endpoints/cell on the lesioned side” value is “trend toward increase” and the “Microglial process length/cell on the lesioned side” value was “significant increase”.
